Experiments:
MFSD12 = molecular target: T1, MFSD12 (Homo sapiens, UniProt Q6NUT3); test: Cysteine uptake assay into isolated lysosomes; format: biochemical; settings: 500 μM unlabeled cysteine; lysosomes from HEK-293T cells; 15-minute transport assay
T1 construct: isolate large quantities of lysosomes from wild-type and MFSD12 knock-out HEK-293T cells; endogenous in cells; host or cells: suspension-adapted HEK-293T cells; lysosomes purified by differential and OptiPrep gradient centrifugation
Experimental: Lysosomal purification protocols were adapted from previous protocols (Graham, 2001). 500 million suspension-adapted HEK-293T cells were spun down, washed in ice-cold PBS, and resuspended in 15 mL homogenization buffer (250 mM sucrose; 20 mM HEPES, pH 7.4; 1 mM EDTA) supplemented with protease inhibitor tablets (Roche). Cells were dounced 10 times in a lose fitting glass dounce and the resulting lysate was centrifuged at 1,500×g for 10 minutes at 4° C. After transferring the supernatant, 15 mL homogenization buffer was used to resuspend the pellet, and douncing and centrifugation were repeated. Supernatants from three successive rounds of homogenization and centrifugation were pooled and centrifuged a final time before transferring ‘post-nuclear supernatant’ to the subsequent step. ‘Post-nuclear supernatant’ was centrifuged at 20,000×g for 10 minutes at 4° C. to pellet organelles. To further wash organelles, the pellet was resuspended in 45 mL homogenization buffer and spun again at 20,000×g for 10 minutes at 4° C. The resulting pellet or ‘light mitochondrial fraction’ was resuspended in 9% OptiPrep (Thermo Fisher) prepared in Dilution Buffer (250 mM sucrose; 40 mM HEPES, pH 7.4; 2 mM EDTA) and overlaid on top of a discontinuous gradient of 18, 16, 14, 12, and 10% OptiPrep prepared in Dilution Buffer. […]

[1] = molecular target: T2, plasma membrane-localized MFSD12 (Homo sapiens, UniProt Q6NUT3, DEL167-169/L256A/L257A/Y182H); test: Plasma membrane cellular cysteine uptake assay (MFSD12^PM); format: cell-based; settings: HEK-293T cells expressing MFSD12^PM; 500 μM cold cysteine for competition
T2 construct: expressed in transfected cells; host or cells: HEK-293T cells transiently transfected with the pRK5-HA-MFSD12 LL253-254AA plasmid (PEI)
Experimental: 3 million HEK-293T cells were plated in 10 cm dishes. Cells were transfected with 3 μg of plasmid with PEI (3 μg per 1 μg plasmid) and scraped 48 hours post-transfection into ice cold KPBS. After washing twice, cells were resuspended in LysoBuffer supplemented with 2.5 μM Erastin (MilliporeSigma), 4 mM leucine, and 3 mM serine. Assays were started with the addition of cold cysteine (10 μM for transport conditions and 500 μM for competition) and 50 μCi/mL (<100 pM) [^35S]-cysteine. Samples were incubated at 30° C. and aliquots were taken at indicated time points. Aliquoted cells were harvested by centrifugation at 1,000×g for 30 seconds at 4° C. and washed twice in ice-cold PBS. Cell pellets were resuspended in water before mixing into scintillation fluid and measuring scintillation counts (TriCarb T9000TR, Perkin-Elmer).

T2 sequence (Q6NUT3 with tags, fused parts or gaps DEL167-169/Y182H/L256A/L257A): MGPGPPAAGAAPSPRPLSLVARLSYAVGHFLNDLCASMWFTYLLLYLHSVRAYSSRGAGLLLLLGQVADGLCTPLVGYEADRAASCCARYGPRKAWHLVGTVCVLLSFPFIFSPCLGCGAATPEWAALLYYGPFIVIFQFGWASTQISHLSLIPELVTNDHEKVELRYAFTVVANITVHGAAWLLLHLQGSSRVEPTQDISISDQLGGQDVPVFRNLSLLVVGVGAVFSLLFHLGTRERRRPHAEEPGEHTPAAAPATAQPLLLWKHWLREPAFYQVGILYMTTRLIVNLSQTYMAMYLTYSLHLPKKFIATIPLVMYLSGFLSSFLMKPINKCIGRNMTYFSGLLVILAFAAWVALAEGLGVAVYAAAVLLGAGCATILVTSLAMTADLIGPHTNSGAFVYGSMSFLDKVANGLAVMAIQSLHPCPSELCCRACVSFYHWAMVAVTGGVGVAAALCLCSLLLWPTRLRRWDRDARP
T1 sequence (Q6NUT3 whole entry): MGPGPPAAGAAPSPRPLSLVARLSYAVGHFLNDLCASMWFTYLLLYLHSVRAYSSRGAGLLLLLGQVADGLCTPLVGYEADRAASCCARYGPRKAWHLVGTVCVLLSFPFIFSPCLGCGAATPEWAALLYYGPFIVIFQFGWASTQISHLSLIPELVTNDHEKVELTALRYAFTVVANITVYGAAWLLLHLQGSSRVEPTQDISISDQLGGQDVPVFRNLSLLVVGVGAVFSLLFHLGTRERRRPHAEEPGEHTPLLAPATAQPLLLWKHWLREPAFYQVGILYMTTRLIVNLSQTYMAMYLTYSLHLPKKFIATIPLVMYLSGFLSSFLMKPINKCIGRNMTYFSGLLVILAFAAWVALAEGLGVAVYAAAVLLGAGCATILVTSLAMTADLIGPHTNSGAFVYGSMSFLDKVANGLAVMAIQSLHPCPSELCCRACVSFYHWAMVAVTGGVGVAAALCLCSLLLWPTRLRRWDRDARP

competition of MFSD12-induced [35S]-cysteine transport [1]: completely competed
Structure (SMILES): N[C@@H](CS)C(=O)O [cysteine]
competition of [35S]-cysteine signal in lysosomes (MFSD12): reduce the [^35S] signal in lysosomes having MFSD12 to the same level as those in lysosomes lacking it
